According to patent US12357711B2, “PSMA binding dual mode radiotracer and therapeutic” (Technische Universität München, priority 2019, dated 2025):
Several values for one entry are separate records, joined by “and”; a condition that tells them apart may be missing. Identical values can stand only once.

How the values were obtained:
[1] = target: T1, human serum albumin (Homo sapiens, UniProt P02768); experiment: HSA binding on Chiralpak HSA column; type: in vitro ADME; details: Chiralpak HSA column (50 × 3 mm, 5 μm)
T1 construct: purchased H13H-2433
T1 sequence (P02768 25-609): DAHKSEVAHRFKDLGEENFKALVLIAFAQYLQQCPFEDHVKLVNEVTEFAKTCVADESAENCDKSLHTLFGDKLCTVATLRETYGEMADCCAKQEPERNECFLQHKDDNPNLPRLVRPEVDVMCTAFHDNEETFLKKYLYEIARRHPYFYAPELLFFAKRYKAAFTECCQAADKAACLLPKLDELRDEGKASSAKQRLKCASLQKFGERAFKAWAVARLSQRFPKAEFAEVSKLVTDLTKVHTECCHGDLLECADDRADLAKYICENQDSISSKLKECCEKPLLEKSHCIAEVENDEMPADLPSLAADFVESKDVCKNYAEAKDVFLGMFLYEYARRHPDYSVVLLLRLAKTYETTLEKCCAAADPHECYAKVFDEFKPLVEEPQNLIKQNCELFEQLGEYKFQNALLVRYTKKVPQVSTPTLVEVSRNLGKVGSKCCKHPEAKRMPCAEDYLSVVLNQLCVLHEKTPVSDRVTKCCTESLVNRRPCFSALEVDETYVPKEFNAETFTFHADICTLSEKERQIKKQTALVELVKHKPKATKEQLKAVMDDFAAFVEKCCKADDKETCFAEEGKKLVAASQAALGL
Protocol: The mobile phase (A: NH4OAc, 50 mM in water, pH 7 and B: isopropanol) was freshly prepared for each experiment and only used for one day. The column was kept at room temperature and each run was stopped after detection of the signal to reduce the acquisition time. All substances were dissolved in a 0.5 mg/ml concentration in 50% 2-propanol and 50% 50 mM pH 6.9 ammonium acetate buffer. […] All nine reference substances were injected consecutively to establish a non-linear regression with Origin Pro 2016G.

[2] = system: patients; experiment: Human biodistribution and uptake in tumor lesions (PET/CT, SUV); type: in vivo; details: for ratio SUVmax to background, mean / ratio SUVmean to background, mean: human PET/CT, background gluteal muscle
Protocol: Human biodistribution was estimated by analysing clinical ^18F-rhPSMA-7- and ^18F-rhPSMA-7.3-PET/CT exams in 47 and 32 patients, respectively.
The mean and maximum standardized uptake values (SUVmean/SUVmax) were determined for background (gluteal muscle), normal organs (salivary glands, blood pool, lung, liver, spleen, pancreas, duodenum, kidney, bladder, bone) and three representative tumor lesions. Tumor uptake was analyzed in 89 lesions (26 primary tumors/local recurrences, 23 bone, 38 lymph node and 2 visceral metastases) and 63 lesions (14 primary tumors/local recurrences, 30 bone, 18 lymph node and 1 visceral metastases) for ^18F-rhPSMA-7 and ^18F-rhPSMA-7.3, respectively.
Organ-background and Tumor-background ratios were calculated.

[3] = system: LNCaP tumor-bearing SCID mice; experiment: Biodistribution at 1 h p.i.; type: in vivo
Protocol: FIG. 10: Biodistribution (in % ID/g) of ^18E-labeled rhPSMA tracers at 1 h p.i in LNCaP tumor-bearing SCID mice. Data are expressed as mean±SD (n=4 for rhPSMA7.1, n=5 for 7.2, n=4 for 7.3, n=5 for 7.4 and n=3 for 7-rac).

[4] = clinical PET/CT, gluteal muscle
[5] = clinical PET/CT, non-diseased bone
[6] = clinical PET/CT, listed as 18F-rhPSMA-7.3

## CC(C)(C)[Si](F)(c1ccc(C(=O)NC[C@@H](NC(=O)CC[C@@H](C(=O)O)N2CCN(CC(=O)[O-])CCN(CC(=O)[O-])CCN(CC(=O)[O-])CC2)C(=O)N[C@H](CCCCNC(=O)CCC(=O)NCCC[C@@H](NC(=O)CC[C@H](NC(=O)N[C@@H](CCC(=O)O)C(=O)O)C(=O)O)C(=O)O)C(=O)O)cc1)C(C)(C)C.[Ga+3] [rhPSMA7.3, [^19F][^natGa]D-Dap-S-DOTAGA-rhPSMA7]
[1]
  HSA Binding: 96.9%
[2]; bladder
  ratio SUVmax to background, mean: 3.1
  ratio SUVmean to background, mean: 3.1
[2]; bloodpool
  ratio SUVmax to background, mean: 2.8
  ratio SUVmean to background, mean: 2.9
[2]; bone
  ratio SUVmax to background, mean: 2.0
  ratio SUVmean to background, mean: 2.1
[2]; clinical PET/CT
  SUVmax bladder, max: 6.0
  SUVmax bladder, mean: 3.1
  SUVmax bladder, min: 1.1
  SUVmax bloodpool, max: 3.9
  SUVmax bloodpool, mean: 2.8
  SUVmax bloodpool, min: 1.9
  SUVmax duodenum, max: 32.2
  SUVmax duodenum, mean: 16.4
  SUVmax duodenum, min: 6.1
  SUVmax kidney, max: 99.9
  SUVmax kidney, mean: 51.9
  SUVmax kidney, min: 30.9
  SUVmax liver, max: 15.4
  SUVmax liver, mean: 9.7
  SUVmax liver, min: 4.6
  SUVmax lungs, max: 1.9
  SUVmax lungs, mean: 1.1
  SUVmax lungs, min: 0.7
  SUVmax pancreas, max: 7.8
  SUVmax pancreas, mean: 4.2
  SUVmax pancreas, min: 2.4
  SUVmax parotic gland, max: 38.3
  SUVmax parotic gland, mean: 24.6
  SUVmax parotic gland, min: 11.2
  SUVmax spleen, max: 22.5
  SUVmax spleen, mean: 11.4
  SUVmax spleen, min: 5.0
  SUVmax submandibular gland, max: 47.4
  SUVmax submandibular gland, mean: 28.4
  SUVmax submandibular gland, min: 14.6
  SUVmean bladder, max: 4.1
  SUVmean bladder, min: 0.7
  SUVmean bloodpool, max: 2.5
  SUVmean bloodpool, min: 1.3
  SUVmean duodenum, max: 23.0
  SUVmean duodenum, mean: 11.0
  SUVmean duodenum, min: 3.0
  SUVmean kidney, max: 70.6
  SUVmean kidney, mean: 35.5
  SUVmean kidney, min: 20.7
  SUVmean liver, max: 12.3
  SUVmean liver, mean: 7.3
  SUVmean liver, min: 3.2
  SUVmean lungs, max: 1.1
  SUVmean lungs, mean: 0.7
  SUVmean lungs, min: 0.4
  SUVmean pancreas, max: 5.2
  SUVmean pancreas, mean: 2.8
  SUVmean pancreas, min: 1.6
  SUVmean parotic gland, max: 25.0
  SUVmean parotic gland, mean: 16.0
  SUVmean parotic gland, min: 8.2
  SUVmean spleen, max: 17.9
  SUVmean spleen, mean: 8.5
  SUVmean spleen, min: 3.7
  SUVmean submandibular gland, max: 33.4
  SUVmean submandibular gland, mean: 19.6
  SUVmean submandibular gland, min: 10.4
  tracer retention in the bladder compared with ^18F-rhPSMA-7: significantly lower
  uptake in tumor lesions compared with ^18F-rhPSMA-7: significantly higher
[2]; [4]
  SUVmax background, max: 1.7
  SUVmax background, mean: 1.0
  SUVmax background, min: 0.6
  SUVmean background, max: 1.1
  SUVmean background, mean: 0.7
  SUVmean background, min: 0.4
[2]; [5]
  SUVmax bone, max: 3.4
  SUVmax bone, mean: 2.1
  SUVmax bone, min: 1.1
  SUVmean bone, max: 2.2
  SUVmean bone, mean: 1.3
  SUVmean bone, min: 0.7
[2]; clinical PET/CT, tumor lesions
  SUVmax tumor, max: 316.0
  SUVmax tumor, mean: 44.0
  SUVmax tumor, min: 2.4
  SUVmean tumor, max: 224.1
  SUVmean tumor, min: 1.6
[2]; clinical PET/CT, tumor lesions, listed as 18F-rhPSMA-7.3
  SUVmean tumor, mean: 32.5±42.7 and 32.5
[2]; [6]
  SUVmean bladder, mean: 2.0 and 2.0±0.8
  SUVmean bloodpool, mean: 1.9 and 1.8
[2]; duodenum
  ratio SUVmax to background, mean: 16.2
  ratio SUVmean to background, mean: 17.1
[2]; kidney
  ratio SUVmax to background, mean: 51.8
  ratio SUVmean to background, mean: 55.6
[2]; liver
  ratio SUVmax to background, mean: 9.7
  ratio SUVmean to background, mean: 11.4
[2]; lungs
  ratio SUVmax to background, mean: 1.0
  ratio SUVmean to background, mean: 1.0
[2]; pancreas
  ratio SUVmax to background, mean: 4.1
  ratio SUVmean to background, mean: 4.4
[2]; parotid gland
  ratio SUVmax to background, mean: 24.7
  ratio SUVmean to background, mean: 25.2
[2]; spleen
  ratio SUVmax to background, mean: 11.4
  ratio SUVmean to background, mean: 13.3
[2]; submandibular gland
  ratio SUVmax to background, mean: 28.2
  ratio SUVmean to background, mean: 30.6
[2]; tumor lesions
  ratio SUVmax to background, mean: 43.6
  ratio SUVmean to background, mean: 50.8
[3]
  Biodistribution adrenals: 2.2 ± 0.83 % ID/g
  Biodistribution blood: 0.96 ± 0.24 % ID/g
  Biodistribution bone: 0.38 ± 0.32 % ID/g
  Biodistribution heart: 0.87 ± 0.17 % ID/g
  Biodistribution intestine: 0.35 ± 0.07 % ID/g
  Biodistribution kidneys: 292 ± 45.1 % ID/g
  Biodistribution liver: 0.69 ± 0.13 % ID/g
  Biodistribution lung: 2.2 ± 0.35 % ID/g
  Biodistribution muscle: 0.33 ± 0.15 % ID/g
  Biodistribution pancreas: 0.63 ± 0.44 % ID/g
  Biodistribution spleen: 16.6 ± 2.6 % ID/g
  Biodistribution stomach: 0.44 ± 0.23 % ID/g
[3]; LNCaP tumor
  Biodistribution tumor: 18.3 ± 7.2 % ID/g
